Assay results reported in publication PMC12455397 (Angewandte Chemie (International Ed. in English), 2025).

Experiments:
human Keap1 Kelch = human Keap1 Kelch (Homo sapiens, UniProt Q14145); experiment: Fluorescence polarization (FP) competition assay with Cy5-Nrf2 peptide probe; conditions: for Ki: ≥3 individual measurements; for fold improvement in binding affinity (FP) over parent analogue: 7 vs 4, 12 vs 7, 13 vs 12; for ligand efficiency (LE): from FP Ki
[1] = test system: Nrf2-regulated genes (AKR1B10, NQO1, TRXR1, HO-1) in HaCaT human keratinocytes; experiment: HaCaT cell assay, Western Blotting of Nrf2-regulated proteins; type: cell-based; conditions: HaCaT, 10 µM, 24 h
[2] = FP (Ki/nM), Table S2, mean ± SEM, NA: not active (measured up to 4 mM)
[3] = Ki (FP), mean, text and figures

Sequence of human Keap1 Kelch (Q14145 321-609): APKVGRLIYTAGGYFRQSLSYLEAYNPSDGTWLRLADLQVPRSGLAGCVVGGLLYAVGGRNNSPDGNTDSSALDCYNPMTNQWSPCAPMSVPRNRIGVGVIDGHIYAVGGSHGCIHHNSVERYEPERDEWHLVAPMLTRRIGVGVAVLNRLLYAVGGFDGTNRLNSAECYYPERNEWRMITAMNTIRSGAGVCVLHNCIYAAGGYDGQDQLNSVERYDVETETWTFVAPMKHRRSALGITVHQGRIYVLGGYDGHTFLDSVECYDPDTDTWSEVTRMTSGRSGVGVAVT

| Ki (human Keap1 Kelch; [2]) [nM] | Ki (human Keap1 Kelch; [3]) [nM] | Compound | also measured |
| --- | --- | --- | --- |
| 284 ± 31 | 280 | COc1cccc(C(CC(=O)O)c2ccc3ccc(OCC(=O)NC4CCCCCC4)cc3c2)c1 (stereo not drawn) [Compound 14] | – |
| 6560 ± 580 | – | O=C(O)CCc1ccc2ccc(OCC(=O)NC3CCCCCC3)cc2c1 [Compound 7] | fold improvement in binding affinity (FP) over parent analogue (human Keap1 Kelch): 2 fold; Ki (human Keap1 Kelch; Ki (FP), mean): 6600 nM; ligand efficiency (LE) (human Keap1 Kelch): 0.26 |
| – | 7.1 | Cc1cc2c(cc1C(CC(=O)O)c1ccc3ccc(OCC(=O)NC4CCCCC4)cc3c1)OC(F)(F)O2 (stereo not drawn) [Compound 37] | – |
| 26.7 ± 4.2 | 27 | O=C(O)CC(c1ccc2c(c1)CCO2)c1ccc2ccc(OCC(=O)NC3C=CCCC3)cc2c1 (stereo not drawn) [Compound 40] | protein levels of Nrf2-regulated genes by WB [1]: strong bands in WB for all tested proteins |
| 1060 ± 99 | – | O=C(O)CC(c1ccccc1)c1ccc2ccc(OCC(=O)NC3CCCCCC3)cc2c1 (stereo not drawn) [Compound 12] | fold improvement in binding affinity (FP) over parent analogue (human Keap1 Kelch): 6 fold; Ki (human Keap1 Kelch; Ki (FP), mean): 1100 nM; ligand efficiency (LE) (human Keap1 Kelch): 0.25 |
| 18.3 ± 2.4 | 18 | Cc1cc2c(cc1C(CC(=O)O)c1ccc3ccc(OCC(=O)NC4C=CCCC4)cc3c1)CCO2 (stereo not drawn) [Compound 45] | – |
| 23.6 ± 2.2 | 24 | COc1ccc(C(CC(=O)O)c2ccc3ccc(OCC(=O)NC4CCCCCC4)cc3c2)c(C)c1 (stereo not drawn) [Compound 17] | – |
| 51.4 ± 4.8 | 51 | O=C(O)CC(c1ccc2c(c1)OC(F)(F)O2)c1ccc2ccc(OCC(=O)NC3CCCCC3)cc2c1 (stereo not drawn) [Compound 32] | – |
| 33.8 ± 4.7 | 34 | O=C(O)CC(c1ccc2c(c1)OC(F)(F)O2)c1ccc2ccc(OCC(=O)NC3CCCCCC3)cc2c1 (stereo not drawn) [Compound 22] | – |
| 196000 ± 24000 | – | Cc1cc(C)c(C)c(NC(=O)COc2ccc3ccc(CCC(=O)O)cc3c2)c1C [Compound 11] | Ki (human Keap1 Kelch; Ki (FP), mean): 200000 nM |
| 16.1 ± 3.8 | 16 | Cc1cc2c(cc1C(CC(=O)O)c1ccc3ccc(OCC(=O)NC4C=CCCC4)cc3c1)OC(F)(F)O2 (stereo not drawn) [Compound 47] | – |
| – | 3.9 | Cc1cc2c(cc1C(CC(=O)O)c1ccc3ccc(OCC(=O)NC4C=CCCC4)cc3c1)OCO2 (stereo not drawn) [Compound 44] | protein levels of Nrf2-regulated genes by WB [1]: strong bands in WB for all tested proteins |
| 21.1 ± 1.5 | 21 | O=C(O)CC(c1ccc2ccc(OCC(=O)NC3C=CCCC3)cc2c1)c1ccc2occc2c1 (stereo not drawn) [Compound 41] | – |
| 19.2 ± 2.4 | 19 | Cc1cc2c(cc1C(CC(=O)O)c1ccc3ccc(OCC(=O)NC4C=CCCC4)cc3c1)OCCO2 (stereo not drawn) [Compound 48] | protein levels of Nrf2-regulated genes by WB [1]: strong bands in WB for all tested proteins |
| 82.1 ± 7.9 | 82 | O=C(O)CC(c1ccc2c(c1)CCO2)c1ccc2ccc(OCC(=O)NC3CCCCC3)cc2c1 (stereo not drawn) [Compound 30] | – |
| 24.4 ± 0.4 | 24 | Cc1cc2occc2cc1C(CC(=O)O)c1ccc2ccc(OCC(=O)NC3CCCCC3)cc2c1 (stereo not drawn) [Compound 36] | – |
| 24.5 ± 1.7 | 25 | O=C(O)CC(c1ccc2c(c1)OCO2)c1ccc2ccc(OCC(=O)NC3C=CCCC3)cc2c1 (stereo not drawn) [Compound 39] | – |
| 59.5 ± 8.4 | 60 | Cc1c(Cl)cccc1C(CC(=O)O)c1ccc2ccc(OCC(=O)NC3CCCCCC3)cc2c1 (stereo not drawn) [Compound 18] | – |
| 38300 ± 2900 | – | O=C(O)CCc1ccc2ccc(OCC(=O)NC3CCOCC3)cc2c1 [Compound 5] | Ki (human Keap1 Kelch; Ki (FP), mean): 38000 nM |
| – | 15 | O=C(O)CC(c1ccc2c(c1)OCCO2)c1ccc2ccc(OCC(=O)NC3CCCCCC3)cc2c1 (stereo not drawn) [Compound 23] | – |

More lines, now with the values behind:

| Compound | Ki (human Keap1 Kelch; [2]) [nM] | Ki (human Keap1 Kelch; [3]) [nM] | also measured |
| --- | --- | --- | --- |
| COc1ccc(NC(=O)COc2ccc3ccc(CCC(=O)O)cc3c2)cc1 [Compound 9] | 69600 ± 9400 | – | Ki (human Keap1 Kelch; Ki (FP), mean): 70000 nM |
| O=C(O)CCc1ccc2ccc(OCC(=O)NN3CCOCC3)cc2c1 [Compound 6] | 268000 ± 29000 | – | Ki (human Keap1 Kelch; Ki (FP), mean): 270000 nM |
| Cc1cc2c(cc1C(CC(=O)O)c1ccc3ccc(OCC(=O)NC4CCCCC4)cc3c1)OCO2 (stereo not drawn) [Compound 34] | 18.1 ± 5.9 | 18 | – |
| COc1ccc(C(CC(=O)O)c2ccc3ccc(OCC(=O)NC4CCCCCC4)cc3c2)cc1 (stereo not drawn) [Compound 13] | 31.6 ± 2.6 | 32 | fold improvement in binding affinity (FP) over parent analogue (human Keap1 Kelch): 34 fold; ligand efficiency (LE) (human Keap1 Kelch): 0.29 |
| Cc1cc2occc2cc1C(CC(=O)O)c1ccc2ccc(OCC(=O)NC3CCCCCC3)cc2c1 (stereo not drawn) [Compound 26] | 15.6 ± 2.6 | 16 | – |
| O=C(O)CC(c1cccc(Cl)c1)c1ccc2ccc(OCC(=O)NC3CCCCCC3)cc2c1 (stereo not drawn) [Compound 16] | 53.9 ± 6.1 | 54 | – |
| O=C(O)CC(c1ccc2c(c1)OCCO2)c1ccc2ccc(OCC(=O)NC3CCCCC3)cc2c1 (stereo not drawn) [Compound 33] | 29.3 ± 1.7 | 29 | – |
| Cc1cc2c(cc1C(CC(=O)O)c1ccc3ccc(OCC(=O)NC4CCCCC4)cc3c1)OCCO2 (stereo not drawn) [Compound 38] | 14.9 ± 0.8 | 15 | – |
| O=C(O)CCc1ccc2ccc(OCC(=O)Nc3ccccc3)cc2c1 [Compound 8] | 10200 ± 2400 | – | Ki (human Keap1 Kelch; Ki (FP), mean): 10000 nM |
| O=C(O)CC(c1ccc2c(c1)CCO2)c1ccc2ccc(OCC(=O)NC3CCCCCC3)cc2c1 (stereo not drawn) [Compound 20] | 35.5 ± 3.4 | 36 | – |
| Cc1cc2c(cc1C(CC(=O)O)c1ccc3ccc(OCC(=O)NC4CCCCCC4)cc3c1)OC(F)(F)O2 (stereo not drawn) [Compound 27] | 14.1 ± 2.4 | 14 | – |
| O=C(O)CC(c1ccc2c(c1)OCO2)c1ccc2ccc(OCC(=O)NC3CCCCC3)cc2c1 (stereo not drawn) [Compound 29] | 57.1 ± 4.8 | 57 | – |
| Cc1cc2c(cc1C(CC(=O)O)c1ccc3ccc(OCC(=O)NC4CCCCC4)cc3c1)CCO2 (stereo not drawn) [Compound 35] | 32.4 ± 1.3 | 32 | – |
| O=C(O)CC(c1ccc2c(c1)OCO2)c1ccc2ccc(OCC(=O)NC3CCCCCC3)cc2c1 (stereo not drawn) [Compound 19] | 23.2 ± 1.3 | 23 | ligand efficiency (LE) (human Keap1 Kelch): 0.29 |
| Cc1cc(C)c(NC(=O)COc2ccc3ccc(CCC(=O)O)cc3c2)c(C)c1 [Compound 10] | 21300 ± 710 | – | Ki (human Keap1 Kelch; Ki (FP), mean): 21000 nM |
| O=C(O)CC(c1ccc2ccc(OCC(=O)NC3CCCCC3)cc2c1)c1ccc2occc2c1 (stereo not drawn) [Compound 31] | 68.2 ± 12 | 68 | – |
| O=C(COc1cccc(N2CCC(C(=O)O)CC2)c1)NC1CCCCC1 [Compound 3] | 162000 ± 22000 | – | Ki (human Keap1 Kelch; Ki (FP), mean): 160000 nM; ligand efficiency (LE) (human Keap1 Kelch): 0.20 |
| O=C(O)CC(c1ccc(Cl)cc1)c1ccc2ccc(OCC(=O)NC3CCCCCC3)cc2c1 (stereo not drawn) [Compound 15] | 294 ± 25 | 290 | – |
| O=C(O)CC(c1ccc2c(c1)OC(F)(F)O2)c1ccc2ccc(OCC(=O)NC3C=CCCC3)cc2c1 (stereo not drawn) [Compound 42] | 29.9 ± 2.2 | 30 | – |
| O=C(O)CC(c1ccc2c(c1)OCCO2)c1ccc2ccc(OCC(=O)NC3C=CCCC3)cc2c1 (stereo not drawn) [Compound 43] | 20.3 ± 2.1 | 20 | – |
| Cc1cc2c(cc1C(CC(=O)O)c1ccc3ccc(OCC(=O)NC4CCCCCC4)cc3c1)CCO2 (stereo not drawn) [Compound 25] | 18.8 ± 1.7 | 19 | protein levels of Nrf2-regulated genes by WB [1]: strong bands in WB for all tested proteins |
| Cc1cc2occc2cc1C(CC(=O)O)c1ccc2ccc(OCC(=O)NC3C=CCCC3)cc2c1 (stereo not drawn) [Compound 46] | 17.8 ± 3.4 | 18 | – |
| O=C(O)CC(c1ccc2ccc(OCC(=O)NC3CCCCCC3)cc2c1)c1ccc2occc2c1 (stereo not drawn) [Compound 21] | 38.3 ± 1.6 | 38 | – |
| O=C(O)CCc1ccc2ccc(OCC(=O)NC3CCCCC3)cc2c1 [Compound 4] | 15500 ± 1300 | – | Ki (human Keap1 Kelch; Ki (FP), mean): 16000 nM; ligand efficiency (LE) (human Keap1 Kelch): 0.25 |
| O=C(O)CCc1cccc(OCC(=O)NC2CCCCC2)c1 [Compound 2] | – | – | activity in FP competition assay (human Keap1 Kelch): inactive |
